PMC4714714 (Journal of medicinal chemistry, 2015)
Like-named read-outs stand apart in the source and are kept apart here.

Tests used:
[1] = test system: KB human nasopharyngeal carcinoma cells (FRα/PCFT/RFC); test: Growth inhibition of KB human tumor cells; format: cell-based
[2] = biological target: FRα (Homo sapiens, UniProt P15328); test: [3H]folic acid competition binding to FRα on RT16 CHO cells
[3] = biological target: FRβ (Homo sapiens, UniProt P14207); test: [3H]folic acid competition binding to FRβ on D4 CHO cells
[4] = biological target: T1, PCFT (Homo sapiens, UniProt Q96NT5); test: PCFT uptake and transport kinetics in R2/PCFT4 CHO cells; format: cell-based
T1 sequence (Q96NT5 1-459): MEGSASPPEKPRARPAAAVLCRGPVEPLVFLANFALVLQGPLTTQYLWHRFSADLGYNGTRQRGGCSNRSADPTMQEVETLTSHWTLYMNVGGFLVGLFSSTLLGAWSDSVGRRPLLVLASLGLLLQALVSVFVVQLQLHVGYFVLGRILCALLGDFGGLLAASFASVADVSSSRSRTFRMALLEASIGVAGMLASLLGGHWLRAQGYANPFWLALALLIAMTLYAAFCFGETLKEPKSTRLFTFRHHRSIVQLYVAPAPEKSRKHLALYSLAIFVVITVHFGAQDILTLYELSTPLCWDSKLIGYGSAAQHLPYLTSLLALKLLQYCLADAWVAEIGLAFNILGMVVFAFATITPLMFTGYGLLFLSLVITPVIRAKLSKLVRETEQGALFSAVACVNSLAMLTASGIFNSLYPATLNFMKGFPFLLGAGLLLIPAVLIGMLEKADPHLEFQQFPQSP

[5] = biological target: T2, recombinant human GARFTase (Homo sapiens, UniProt P22102); test: In vitro GARFTase inhibition assay; format: biochemical; conditions: from Ki values
T2 sequence (P22102 810-1010 limits assumed): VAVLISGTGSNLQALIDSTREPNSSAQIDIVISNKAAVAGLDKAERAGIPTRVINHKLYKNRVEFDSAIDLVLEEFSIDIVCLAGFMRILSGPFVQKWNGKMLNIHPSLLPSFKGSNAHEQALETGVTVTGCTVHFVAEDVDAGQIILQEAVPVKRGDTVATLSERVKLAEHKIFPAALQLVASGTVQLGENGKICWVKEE

[6] = test system: SKOV3 human ovarian tumor xenografts; test: In vivo efficacy trial against SKOV3 xenografts in SCID mice; conditions: folate-deficient diet; 4 28 mg/kg, 7 16 mg/kg i.v. Q4dx3
[7] = biological target: T3, DHFR (Homo sapiens, UniProt P00374); test: Isolated enzyme assay DHFR; format: biochemical; conditions: nucleoside protection and isolated enzyme assays (not shown)
T3 sequence (P00374 1-187): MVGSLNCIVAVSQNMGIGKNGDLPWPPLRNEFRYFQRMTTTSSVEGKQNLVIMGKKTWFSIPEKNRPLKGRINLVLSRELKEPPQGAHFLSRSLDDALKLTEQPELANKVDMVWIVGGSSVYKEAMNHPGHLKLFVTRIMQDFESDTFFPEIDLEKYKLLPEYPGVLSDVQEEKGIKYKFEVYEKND

[8] = biological target: TS (Homo sapiens, UniProt P04818); test: Isolated enzyme assay TS; format: biochemical; conditions: nucleoside protection and isolated enzyme assays (not shown)
[9] = read-out: IC50 for inhibition of proliferation, KB

Sequence of TS (P04818 whole entry): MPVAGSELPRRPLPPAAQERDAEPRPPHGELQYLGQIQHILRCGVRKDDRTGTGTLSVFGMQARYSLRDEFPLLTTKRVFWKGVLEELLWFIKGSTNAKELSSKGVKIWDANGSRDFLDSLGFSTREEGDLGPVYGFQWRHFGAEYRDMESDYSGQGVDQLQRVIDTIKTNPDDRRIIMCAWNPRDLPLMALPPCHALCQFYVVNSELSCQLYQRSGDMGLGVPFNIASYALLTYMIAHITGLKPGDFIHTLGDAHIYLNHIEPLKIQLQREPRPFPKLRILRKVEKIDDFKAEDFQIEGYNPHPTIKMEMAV
Sequence of FRβ (P14207 17-255): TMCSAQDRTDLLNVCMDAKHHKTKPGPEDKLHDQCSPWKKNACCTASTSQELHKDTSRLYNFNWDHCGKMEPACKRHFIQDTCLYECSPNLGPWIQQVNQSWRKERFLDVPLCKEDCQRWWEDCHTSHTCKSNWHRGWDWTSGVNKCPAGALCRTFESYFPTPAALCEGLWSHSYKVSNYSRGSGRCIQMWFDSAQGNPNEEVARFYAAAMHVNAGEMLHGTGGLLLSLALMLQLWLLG
Sequence of FRα (P15328 25-257): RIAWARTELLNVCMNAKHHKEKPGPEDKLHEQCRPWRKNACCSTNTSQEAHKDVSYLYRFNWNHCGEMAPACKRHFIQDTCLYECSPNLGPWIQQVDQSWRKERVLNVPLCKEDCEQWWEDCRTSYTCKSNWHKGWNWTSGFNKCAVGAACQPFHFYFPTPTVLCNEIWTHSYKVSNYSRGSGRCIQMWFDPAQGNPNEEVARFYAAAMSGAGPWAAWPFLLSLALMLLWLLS

Row | SMILES | IC50 [1, 9] | tumor growth delay (T–C value) [6] | inhibition of DHFR [7] | inhibition of TS [8] | other results
1 | C#CCC(Cc1cnc2nc(N)nc(N)c2n1)c1ccc(C(=O)N[C@@H](CCC(=O)O)C(=O)O)cc1 (stereo partly drawn) [PDX, N-(4-{1-[(2,4-diaminopteridin-6-yl)methyl]but-3-yn-1-yl}-benzoyl)-L-glutamic acid] | 0.47 nM |  |  |  | IC50 ([1]; read-out: IC50 for inhibition of proliferation, KB (+FA)): 1.94 nM
2 | Nc1nc2[nH]c(CCCc3cc(C(=O)N[C@@H](CCC(=O)O)C(=O)O)cs3)cc2c(=O)[nH]1 [compound 7, (S)-2-({5-[3-(2-Amino-4-oxo-4,7-dihydro-3H-pyrrolo[2,3-d]-pyrimidin-6-yl)-propyl]-thiophene-3-carbonyl}-amino)-pentanedioic Acid] |  | 13 days |  |  | relative binding affinity to FRα, % of that for folic acid [2]: approximately 60 % of that for folic acid; relative binding affinity to FRβ, % of the affinity for folic acid [3]: 35–40 % of the affinity for folic acid; PCFT uptake of [3H]7 in excess of that for [3H]PMX ([4]; 0.5 μM, pH 5.5, 37 °C): ~ 40%; Vmax, PCFT transport, pH 5.5 ([4]; pH 5.5): 24.62 (±6.60) pmol/mg/min; Vmax, PCFT transport, pH 6.8 ([4]; pH 6.8): 3.0 (±0.3) pmol/mg/min; fold more potent as inhibitor of human GARFTase than 4 [5]: ~ 7 fold; fold more potent as inhibitor of human GARFTase than PMX [5]: > 100 fold
3 | Nc1nc(N)c2c(CCCc3csc(C(=O)N[C@@H](CCC(=O)O)C(=O)O)c3)coc2n1 [compound 6, (S)-2-({4-[3-(2,4-Diamino-furo[2,3-d]pyrimidin-5-yl)-propyl]-thiophene-2 carbonyl}-amino)-pentanedioic Acid] |  |  | Neither 6 nor 8 were potent inhibitors of DHFR or TS | Neither 6 nor 8 were potent inhibitors of DHFR or TS | 
4 | Nc1nc2[nH]c(CCCc3ccc(C(=O)N[C@@H](CCC(=O)O)C(=O)O)s3)cc2c(=O)[nH]1 [compound 4] | 0.26 nM | 13 days |  |  | 
5 | Nc1nc(N)c2c(CCCc3cc(C(=O)N[C@@H](CCC(=O)O)C(=O)O)cs3)coc2n1 [compound 8, (S)-2-({5-[3-(2,4-Diamino-furo[2,3-d]pyrimidin-5-yl)-propyl]-thiophene-3-carbonyl}-amino)-pentanedioic Acid] |  |  | Neither 6 nor 8 were potent inhibitors of DHFR or TS | Neither 6 nor 8 were potent inhibitors of DHFR or TS | 
